From US20250000865A1, “COMPOUND FOR REDUCING URIC ACID LEVELS” (NEWSOARA BIOPHARMA CO., LTD., priority 2021, published 2025)

Test system: healthy subjects
Test: Phase I clinical trial, single-dose groups: uric acid index before and after treatment
Assay type: in vivo, human
Settings: for Uric acid (UA) Mean / Uric acid (UA) Median / Uric acid (UA) Minimum value / Uric acid (UA) maximum value / Uric acid (UA) Changes over baseline at last visit (on day 6), Mean / Uric acid (UA) Changes over baseline at last visit (on day 6), Median / Uric acid (UA) Changes over baseline at last visit (on day 6), Minimum value / Uric acid (UA) Changes over baseline at last visit (on day 6), maximum value / Uric acid (UA) Changes over baseline on day 2, Mean / Uric acid (UA) Changes over baseline on day 2, Median / Uric acid (UA) Changes over baseline on day 2, Minimum value / Uric acid (UA) Changes over baseline on day 2, maximum value / Uric acid (UA) Changes over baseline on day 4, Mean / Uric acid (UA) Changes over baseline on day 4, Median / Uric acid (UA) Changes over baseline on day 4, Minimum value / Uric acid (UA) Changes over baseline on day 4, maximum value: N = 9
Protocol: The changes of uric acid levels in subjects in single-dose and multi-dose groups of Compound I are shown in FIG. 1A (single dose of 6 mg and single dose of 10 mg), FIG. 1B (single dose of 20 mg and single dose of 30 mg), and FIG. 2 (multi-dose of 10 mg and multi-dose of 20 mg). The corresponding results are also shown in Tables 1.1, 1.2, 1.3, and 2.1, and tables 2.2, 2.3, and 2.4.

[1] = Last visit (day 6), single dose 6 mg
[2] = Last visit (day 6), single dose 10 mg
[3] = Last visit (day 6), single dose 20 mg
[4] = Last visit (day 6), single dose 30 mg

Structure (SMILES): COc1cccc2c1ncc1c(=O)n(C3CCC(C(=O)O)CC3)c(=O)n(-c3cccc(Cl)c3)c12 (stereo not shown) [Compound I, 4-[1-(3-chlorophenyl)-7-methoxy-2,4-dioxo-pyrimido[5,4-c]quinolin-3-yl]cyclohexanecarboxylic acid]
- Uric acid (UA) Mean (Baseline, single dose 6 mg): 315.9 µmol/L
- Uric acid (UA) Median (Baseline, single dose 6 mg): 319.0 µmol/L
- Uric acid (UA) Minimum value (Baseline, single dose 6 mg): 185 µmol/L
- Uric acid (UA) maximum value (Baseline, single dose 6 mg): 429 µmol/L
- Uric acid (UA) Mean (Baseline, single dose 10 mg): 335.2 µmol/L
- Uric acid (UA) Median (Baseline, single dose 10 mg): 330.0 µmol/L
- Uric acid (UA) Minimum value (Baseline, single dose 10 mg): 224 µmol/L
- Uric acid (UA) maximum value (Baseline, single dose 10 mg): 446 µmol/L
- Uric acid (UA) Mean (Baseline, single dose 20 mg): 326.0 µmol/L
- Uric acid (UA) Median (Baseline, single dose 20 mg): 320.0 µmol/L
- Uric acid (UA) Minimum value (Baseline, single dose 20 mg): 256 µmol/L
- Uric acid (UA) maximum value (Baseline, single dose 20 mg): 436 µmol/L
- Uric acid (UA) Mean (Baseline, single dose 30 mg): 300.9 µmol/L
- Uric acid (UA) Median (Baseline, single dose 30 mg): 277.0 µmol/L
- Uric acid (UA) Minimum value (Baseline, single dose 30 mg): 209 µmol/L
- Uric acid (UA) maximum value (Baseline, single dose 30 mg): 401 µmol/L
- Uric acid (UA) Mean (Day 2, single dose 6 mg): 272.9 µmol/L
- Uric acid (UA) Median (Day 2, single dose 6 mg): 272.0 µmol/L
- Uric acid (UA) Minimum value (Day 2, single dose 6 mg): 160 µmol/L
- Uric acid (UA) maximum value (Day 2, single dose 6 mg): 347 µmol/L
- Uric acid (UA) Mean (Day 2, single dose 10 mg): 266.1 µmol/L
- Uric acid (UA) Median (Day 2, single dose 10 mg): 254.0 µmol/L
- Uric acid (UA) Minimum value (Day 2, single dose 10 mg): 161 µmol/L
- Uric acid (UA) maximum value (Day 2, single dose 10 mg): 447 µmol/L
- Uric acid (UA) Mean (Day 2, single dose 20 mg): 194.9 µmol/L
- Uric acid (UA) Median (Day 2, single dose 20 mg): 209.0 µmol/L
- Uric acid (UA) Minimum value (Day 2, single dose 20 mg): 105 µmol/L
- Uric acid (UA) maximum value (Day 2, single dose 20 mg): 251 µmol/L
- Uric acid (UA) Mean (Day 2, single dose 30 mg): 135.8 µmol/L
- Uric acid (UA) Median (Day 2, single dose 30 mg): 144.0 µmol/L
- Uric acid (UA) Minimum value (Day 2, single dose 30 mg): 60 µmol/L
- Uric acid (UA) maximum value (Day 2, single dose 30 mg): 178 µmol/L
- Uric acid (UA) Mean (Day 4, single dose 6 mg): 285.9 µmol/L
- Uric acid (UA) Median (Day 4, single dose 6 mg): 300.0 µmol/L
- Uric acid (UA) Minimum value (Day 4, single dose 6 mg): 193 µmol/L
- Uric acid (UA) maximum value (Day 4, single dose 6 mg): 378 µmol/L
- Uric acid (UA) Mean (Day 4, single dose 10 mg): 302.8 µmol/L
- Uric acid (UA) Median (Day 4, single dose 10 mg): 304.0 µmol/L
- Uric acid (UA) Minimum value (Day 4, single dose 10 mg): 199 µmol/L
- Uric acid (UA) maximum value (Day 4, single dose 10 mg): 462 µmol/L
- Uric acid (UA) Mean (Day 4, single dose 20 mg): 277.7 µmol/L
- Uric acid (UA) Median (Day 4, single dose 20 mg): 279.0 µmol/L
- Uric acid (UA) Minimum value (Day 4, single dose 20 mg): 179 µmol/L
- Uric acid (UA) maximum value (Day 4, single dose 20 mg): 340 µmol/L
- Uric acid (UA) Mean (Day 4, single dose 30 mg): 217.9 µmol/L
- Uric acid (UA) Median (Day 4, single dose 30 mg): 232.0 µmol/L
- Uric acid (UA) Minimum value (Day 4, single dose 30 mg): 140 µmol/L
- Uric acid (UA) maximum value (Day 4, single dose 30 mg): 266 µmol/L
- Uric acid (UA) Mean [1]: 327.2 µmol/L
- Uric acid (UA) Median [1]: 341.0 µmol/L
- Uric acid (UA) Minimum value [1]: 227 µmol/L
- Uric acid (UA) maximum value [1]: 431 µmol/L
- Uric acid (UA) Mean [2]: 357.3 µmol/L
- Uric acid (UA) Median [2]: 367.0 µmol/L
- Uric acid (UA) Minimum value [2]: 243 µmol/L
- Uric acid (UA) maximum value [2]: 508 µmol/L
- Uric acid (UA) Mean [3]: 341.1 µmol/L
- Uric acid (UA) Median [3]: 358.0 µmol/L
- Uric acid (UA) Minimum value [3]: 237 µmol/L
- Uric acid (UA) maximum value [3]: 414 µmol/L
- Uric acid (UA) Mean [4]: 287.4 µmol/L
- Uric acid (UA) Median [4]: 283.0 µmol/L
- Uric acid (UA) Minimum value [4]: 207 µmol/L
- Uric acid (UA) maximum value [4]: 364 µmol/L
- Uric acid (UA) Changes over baseline at last visit (on day 6), Mean (single dose 6 mg): 11.3 µmol/L
- Uric acid (UA) Changes over baseline at last visit (on day 6), Median (single dose 6 mg): 22.0 µmol/L
- Uric acid (UA) Changes over baseline at last visit (on day 6), Minimum value (single dose 6 mg): -48 µmol/L
- Uric acid (UA) Changes over baseline at last visit (on day 6), maximum value (single dose 6 mg): 52 µmol/L
- Uric acid (UA) Changes over baseline on day 2, Mean (single dose 6 mg): -43.0 µmol/L
- Uric acid (UA) Changes over baseline on day 2, Median (single dose 6 mg): -32.0 µmol/L
- Uric acid (UA) Changes over baseline on day 2, Minimum value (single dose 6 mg): -112 µmol/L
- Uric acid (UA) Changes over baseline on day 2, maximum value (single dose 6 mg): 42 µmol/L
- Uric acid (UA) Changes over baseline on day 4, Mean (single dose 6 mg): -30.0 µmol/L
- Uric acid (UA) Changes over baseline on day 4, Median (single dose 6 mg): -18.0 µmol/L
- Uric acid (UA) Changes over baseline on day 4, Minimum value (single dose 6 mg): -86 µmol/L
- Uric acid (UA) Changes over baseline on day 4, maximum value (single dose 6 mg): 31 µmol/L
- Uric acid (UA) Changes over baseline at last visit (on day 6), Mean (single dose 10 mg): 22.1 µmol/L
- Uric acid (UA) Changes over baseline at last visit (on day 6), Median (single dose 10 mg): 19.0 µmol/L
- Uric acid (UA) Changes over baseline at last visit (on day 6), Minimum value (single dose 10 mg): -27 µmol/L
- Uric acid (UA) Changes over baseline at last visit (on day 6), maximum value (single dose 10 mg): 88 µmol/L
- Uric acid (UA) Changes over baseline on day 2, Mean (single dose 10 mg): -69.1 µmol/L
- Uric acid (UA) Changes over baseline on day 2, Median (single dose 10 mg): -70.0 µmol/L
- Uric acid (UA) Changes over baseline on day 2, Minimum value (single dose 10 mg): -133 µmol/L
- Uric acid (UA) Changes over baseline on day 2, maximum value (single dose 10 mg): 1 µmol/L
- Uric acid (UA) Changes over baseline on day 4, Mean (single dose 10 mg): -32.4 µmol/L
- Uric acid (UA) Changes over baseline on day 4, Median (single dose 10 mg): -29.0 µmol/L
- Uric acid (UA) Changes over baseline on day 4, Minimum value (single dose 10 mg): -92 µmol/L
- Uric acid (UA) Changes over baseline on day 4, maximum value (single dose 10 mg): 23 µmol/L
- Uric acid (UA) Changes over baseline at last visit (on day 6), Mean (single dose 20 mg): 15.1 µmol/L
- Uric acid (UA) Changes over baseline at last visit (on day 6), Median (single dose 20 mg): 9.0 µmol/L
- Uric acid (UA) Changes over baseline at last visit (on day 6), Minimum value (single dose 20 mg): -34 µmol/L
- Uric acid (UA) Changes over baseline at last visit (on day 6), maximum value (single dose 20 mg): 122 µmol/L
- Uric acid (UA) Changes over baseline on day 2, Mean (single dose 20 mg): -131.1 µmol/L
- Uric acid (UA) Changes over baseline on day 2, Median (single dose 20 mg): -130.0 µmol/L
- Uric acid (UA) Changes over baseline on day 2, Minimum value (single dose 20 mg): -211 µmol/L
- Uric acid (UA) Changes over baseline on day 2, maximum value (single dose 20 mg): -42 µmol/L
- Uric acid (UA) Changes over baseline on day 4, Mean (single dose 20 mg): -48.3 µmol/L
- Uric acid (UA) Changes over baseline on day 4, Median (single dose 20 mg): -62.0 µmol/L
- Uric acid (UA) Changes over baseline on day 4, Minimum value (single dose 20 mg): -106 µmol/L
- Uric acid (UA) Changes over baseline on day 4, maximum value (single dose 20 mg): 50 µmol/L
- Uric acid (UA) Changes over baseline at last visit (on day 6), Mean (single dose 30 mg): -13.4 µmol/L
- Uric acid (UA) Changes over baseline at last visit (on day 6), Median (single dose 30 mg): -20.0 µmol/L
- Uric acid (UA) Changes over baseline at last visit (on day 6), Minimum value (single dose 30 mg): -75 µmol/L
- Uric acid (UA) Changes over baseline at last visit (on day 6), maximum value (single dose 30 mg): 58 µmol/L
- Uric acid (UA) Changes over baseline on day 2, Mean (single dose 30 mg): -165.1 µmol/L
- Uric acid (UA) Changes over baseline on day 2, Median (single dose 30 mg): -152.0 µmol/L
- Uric acid (UA) Changes over baseline on day 2, Minimum value (single dose 30 mg): -261 µmol/L
- Uric acid (UA) Changes over baseline on day 2, maximum value (single dose 30 mg): -79 µmol/L
- Uric acid (UA) Changes over baseline on day 4, Mean (single dose 30 mg): -83.0 µmol/L
- Uric acid (UA) Changes over baseline on day 4, Median (single dose 30 mg): -69.0 µmol/L
- Uric acid (UA) Changes over baseline on day 4, Minimum value (single dose 30 mg): -162 µmol/L
- Uric acid (UA) Changes over baseline on day 4, maximum value (single dose 30 mg): -3 µmol/L
- uric acid level in the subjects, overall clinical trial result (single-dose and multi-dose groups, p<0.05): reduces the uric acid level in the subjects significantly
- uric acid level on the following days (days 4 and 6) (single-dose groups): gradually recovered
- uric acid level the next day after administration (single-dose groups, certain dose dependence): decreases obviously
